ChEMBL document CHEMBL1806468, “A facile synthesis of 1,5-disubstituted-2-aminoimidazoles: antibiotic activity of a first generation library” (2011)
Active and inactive are the calls of the source. The calls are words filed in the database; no cut-off is given here.

Tests used:
[1] = system: Staphylococcus aureus; assay: Antimicrobial activity against methicillin-resistant Staphylococcus aureus BAA-44 after 16 hrs by broth microdilution method; format: functional; details: BAA-44, 16 h
[2] = system: Klebsiella pneumoniae; assay: Antimicrobial activity against carbapenem-resistant Klebsiella pneumoniae BAA-2146 expressing […] gene after 16 hrs by broth microdilution method; format: functional; details: BAA-2146, 16 h
[3] = system: Staphylococcus epidermidis; assay: Antimicrobial activity against Staphylococcus epidermidis ATCC 29886 after 16 hrs by broth microdilution method; format: functional; details: ATCC 29886, 16 h
[4] = system: Acinetobacter baumannii; assay: Antimicrobial activity against Acinetobacter baumannii ATCC 19606 after 16 hrs by broth microdilution method; format: functional; details: ATCC 19606 = CIP 70.34 = JCM 6841, 16 h
[5] = system: Acinetobacter baumannii; assay: Antimicrobial activity against multidrug-resistant Acinetobacter baumannii BAA-1605 after 16 hrs by broth microdilution method; format: functional; details: BAA-1605, 16 h
[6] = system: Staphylococcus aureus; assay: Antimicrobial activity against methicillin-susceptible Staphylococcus aureus ATCC 29213 after 16 hrs by broth microdilution method; format: functional; details: ATCC 29213, 16 h
[7] = system: Staphylococcus epidermidis; assay: Antimicrobial activity against methicillin-resistant Staphylococcus epidermidis ATCC 51625 after 16 hrs by broth microdilution method; format: functional; details: ATCC 51625, 16 h
[8] = system: Escherichia coli; assay: Antimicrobial activity against Escherichia coli ATCC 35695 after 16 hrs by broth microdilution method; format: functional; details: ATCC 35695, 16 h
[9] = system: Escherichia coli; assay: Inhibition of Escherichia coli ATCC 35695 biofilm formation after 24 hrs by crystal violet reporter assay; format: functional; further: test concentration or dose not given here
[10] = system: Staphylococcus aureus; assay: Inhibition of Staphylococcus aureus BAA-44 biofilm formation after 24 hrs by crystal violet reporter assay; format: functional; further: test concentration or dose not given here
[11] = system: Staphylococcus aureus; assay: Inhibition of Staphylococcus aureus ATCC 29213 biofilm formation after 24 hrs by crystal violet reporter assay; format: functional; further: test concentration or dose not given here
[12] = system: Acinetobacter baumannii; assay: Inhibition of Acinetobacter baumannii ATCC 19606 biofilm formation after 24 hrs by crystal violet reporter assay; format: functional, ATCC 19606 = CIP 70.34 = JCM 6841; further: test concentration or dose not given here
[13] = system: Acinetobacter baumannii; assay: Inhibition of Acinetobacter baumannii BAA-1605 biofilm formation after 24 hrs by crystal violet reporter assay; format: functional; on INH: test concentration or dose not given here

CCCCCCc1cnc(N)n1Cc1ccccc1.Cl
MIC [1]: 32 µg/mL
MIC [2]: 64 µg/mL
MIC [3]: 16 µg/mL
MIC [4]: 16 µg/mL
MIC [5]: 16 µg/mL
MIC [6]: 16 µg/mL
MIC [7]: 16 µg/mL
MIC [8]: 32 µg/mL

CCCCCCCCCCn1c(CCCCCC)cnc1N.Cl
MIC [1]: 1 µg/mL
inhibition (INH) [9]: 59%
MIC [2]: 32 µg/mL
MIC [3]: 0.25 µg/mL
MIC [4]: 8 µg/mL
MIC [5]: 8 µg/mL
MIC [6]: 1 µg/mL
MIC [7]: 1 µg/mL
inhibition (INH) [10]: 83%
inhibition (INH) [11]: 73%
inhibition (INH) [12]: 91%
inhibition (INH) [13]: 97%
MIC [8]: 1 µg/mL

CC(C)Cc1cnc(N)n1CCCc1ccccc1.Cl
MIC [1]: 32 µg/mL
inhibition (INH) [9]: 92%
MIC [2]: 128 µg/mL
MIC [3]: 4 µg/mL
MIC [4]: 32 µg/mL
MIC [5]: 32 µg/mL
MIC [6]: 64 µg/mL
MIC [7]: 32 µg/mL
inhibition (INH) [10]: 96%
inhibition (INH) [11]: 87%
inhibition (INH) [12]: 96%
inhibition (INH) [13]: 97%
MIC [8]: 16 µg/mL

CCCCCCCCn1c(CCCCNC(=O)OCc2ccccc2)cnc1N.Cl
MIC [1]: 16 µg/mL
inhibition (INH) [9]: 90%
MIC [2]: 128 µg/mL
MIC [3]: 2 µg/mL
MIC [4]: 64 µg/mL
MIC [5]: 64 µg/mL
MIC [6]: 16 µg/mL
MIC [7]: 16 µg/mL
inhibition (INH) [10]: 84%
inhibition (INH) [11]: 91%
inhibition (INH) [12]: 93%
inhibition (INH) [13]: 91%
MIC [8]: 8 µg/mL

Cl.Nc1ncc(CCCCNC(=O)OCc2ccccc2)n1CCCc1ccccc1
MIC [1]: 16 µg/mL
MIC [2]: 128 µg/mL
MIC [3]: 16 µg/mL
MIC [4]: 32 µg/mL
MIC [5]: 32 µg/mL
MIC [6]: 16 µg/mL
MIC [7]: 16 µg/mL
MIC [8]: 64 µg/mL

CCCCCCCCn1c(CCCCCC)cnc1N.Cl
MIC [1]: 2 µg/mL
MIC [2]: 32 µg/mL
MIC [3]: 0.125 µg/mL
MIC [4]: 8 µg/mL
MIC [5]: 8 µg/mL
MIC [6]: 2 µg/mL
MIC [7]: 2 µg/mL
MIC [8]: 2 µg/mL

Cl.Nc1ncc(-c2ccccc2)n1CCCc1ccccc1
MIC [1]: 32 µg/mL
inhibition (INH) [9]: 94%
MIC [2]: 128 µg/mL
MIC [3]: 8 µg/mL
MIC [4]: 32 µg/mL
MIC [5]: 32 µg/mL
MIC [6]: 32 µg/mL
MIC [7]: 32 µg/mL
inhibition (INH) [10]: 94%
inhibition (INH) [11]: 95%
inhibition (INH) [12]: 97%
inhibition (INH) [13]: 97%
MIC [8]: 32 µg/mL

Cl.Nc1ncc(Cc2ccccc2)n1Cc1ccccc1
MIC [1]: > 128 µg/mL
MIC [2]: > 128 µg/mL
MIC [3]: 128 µg/mL
MIC [4]: > 128 µg/mL
MIC [5]: > 128 µg/mL
MIC [6]: > 128 µg/mL
MIC [7]: 128 µg/mL
MIC [8]: 128 µg/mL

Cl.Nc1ncc(CCCCNC(=O)OCc2ccccc2)n1Cc1ccccc1
MIC [1]: 32 µg/mL
MIC [2]: 128 µg/mL
MIC [3]: 32 µg/mL
MIC [4]: 64 µg/mL
MIC [5]: 64 µg/mL
MIC [6]: 32 µg/mL
MIC [7]: 32 µg/mL
MIC [8]: 64 µg/mL

CCCCCCCCn1c(-c2ccccc2)cnc1N.Cl
MIC [1]: 64 µg/mL
MIC [2]: 128 µg/mL
MIC [3]: 16 µg/mL
MIC [4]: 16 µg/mL
MIC [5]: 64 µg/mL
MIC [6]: 64 µg/mL
MIC [7]: 64 µg/mL
MIC [8]: 64 µg/mL

CCCCCCc1cnc(N)n1CCCc1ccccc1.Cl
MIC [1]: 8 µg/mL
inhibition (INH) [9]: 94%
MIC [2]: 64 µg/mL
MIC [3]: 4 µg/mL
MIC [4]: 16 µg/mL
MIC [5]: 32 µg/mL
MIC [6]: 8 µg/mL
MIC [7]: 16 µg/mL
inhibition (INH) [10]: 91%
inhibition (INH) [11]: 98%
inhibition (INH) [12]: 96%
inhibition (INH) [13]: 98%
MIC [8]: 8 µg/mL

CCCCCCCCCCCCn1c(CCCCCC)cnc1N.Cl
MIC [1]: 2 µg/mL
MIC [2]: > 128 µg/mL
MIC [3]: 0.5 µg/mL
MIC [4]: 64 µg/mL
MIC [5]: > 128 µg/mL
MIC [6]: 2 µg/mL
MIC [7]: 1 µg/mL
MIC [8]: 2 µg/mL

CCCCCCCCn1c(Cc2ccccc2)cnc1N.Cl
MIC [1]: 128 µg/mL
MIC [2]: > 128 µg/mL
MIC [3]: 128 µg/mL
MIC [4]: 128 µg/mL
MIC [5]: 128 µg/mL
MIC [6]: 128 µg/mL
MIC [7]: 128 µg/mL
MIC [8]: 128 µg/mL

CCCCCn1c(-c2ccccc2)cnc1N.Cl
MIC [1]: 64 µg/mL
MIC [2]: > 128 µg/mL
MIC [3]: 16 µg/mL
MIC [4]: 64 µg/mL
MIC [5]: 64 µg/mL
MIC [6]: 64 µg/mL
MIC [7]: 128 µg/mL
MIC [8]: 128 µg/mL

CCCCCn1c(CC(C)C)cnc1N.Cl
MIC [1]: 128 µg/mL
MIC [2]: 128 µg/mL
MIC [3]: 32 µg/mL
MIC [4]: 64 µg/mL
MIC [5]: 64 µg/mL
MIC [6]: > 128 µg/mL
MIC [7]: 128 µg/mL
MIC [8]: 64 µg/mL

Cl.Nc1ncc(Cc2ccccc2)n1CCCc1ccccc1
MIC [1]: 32 µg/mL
inhibition (INH) [9]: 97%
MIC [2]: 128 µg/mL
MIC [3]: 16 µg/mL
MIC [4]: 32 µg/mL
MIC [5]: 32 µg/mL
MIC [6]: 32 µg/mL
MIC [7]: 16 µg/mL
inhibition (INH) [10]: 90%
inhibition (INH) [11]: 98%
inhibition (INH) [12]: 96%
inhibition (INH) [13]: 94%
MIC [8]: 32 µg/mL

CCCCCn1c(Cc2ccccc2)cnc1N.Cl
MIC [1]: 128 µg/mL
MIC [2]: 128 µg/mL
MIC [3]: 32 µg/mL
MIC [4]: 64 µg/mL
MIC [5]: 64 µg/mL
MIC [6]: 64 µg/mL
MIC [7]: 64 µg/mL
MIC [8]: 64 µg/mL

CCCCCCCCn1c(CC(C)C)cnc1N.Cl
MIC [1]: 8 µg/mL
inhibition (INH) [9]: 88%
MIC [2]: 64 µg/mL
MIC [3]: 2 µg/mL
MIC [4]: 16 µg/mL
MIC [5]: 16 µg/mL
MIC [6]: 16 µg/mL
MIC [7]: 8 µg/mL
inhibition (INH) [10]: 97%
inhibition (INH) [11]: 93%
inhibition (INH) [12]: 97%
inhibition (INH) [13]: 96%
MIC [8]: 2 µg/mL

CCCCCn1c(CCCCNC(=O)OCc2ccccc2)cnc1N.Cl
MIC [1]: 128 µg/mL
MIC [2]: > 128 µg/mL
MIC [3]: 16 µg/mL
MIC [4]: 128 µg/mL
MIC [5]: 128 µg/mL
MIC [6]: 32 µg/mL
MIC [7]: 64 µg/mL
MIC [8]: 32 µg/mL

CC(C)Cc1cnc(N)n1Cc1ccccc1.Cl
MIC [1]: 128 µg/mL
MIC [2]: 128 µg/mL
MIC [3]: 16 µg/mL
MIC [4]: 128 µg/mL
MIC [5]: 128 µg/mL
MIC [6]: 128 µg/mL
MIC [7]: 128 µg/mL
MIC [8]: 128 µg/mL

CCCCCCc1cnc(N)n1CCCCC.Cl
MIC [1]: 32 µg/mL
inhibition (INH) [9]: 97%
MIC [2]: 64 µg/mL
MIC [3]: 8 µg/mL
MIC [4]: 64 µg/mL
MIC [5]: 64 µg/mL
MIC [6]: 32 µg/mL
MIC [7]: 32 µg/mL
inhibition (INH) [10]: 98%
inhibition (INH) [11]: 92%
inhibition (INH) [12]: 97%
inhibition [13]: inactive
MIC [8]: 32 µg/mL
